Source: patent publication US4859468A, “Compositions and method for decomposing adipose tissue” (Senju Pharmaceutical Co., Ltd., priority 1985, dated 1989)

System: free fat cell
Test: Activity on the adrenaline's decomposing action on free fat cell (free fatty acid liberation with adrenaline)
Assay type: cell-based, male Wister rat
Details: adrenaline 0.5 μg/ml alone
Protocol: Eight grams of fat tissue at epididymis of male Wister rat (body weight 150-200 g) was sliced and was added into 20 ml of a Krebs-Ringer phosphoric acid buffer solution (pH 7.4) (hereinafter referred to as KRP buffer solution) containing 20 mg of glucose, 4% of bovine serum albumin and 20 mg of collagenase. The mixture was incubated at 37° C. for 50 min, and after filtration with nylon mesh, was centrifuged at 500 rpm for 30 sec; then, any portion that was not the fat cell layer was sucked out. The fat cell layer was washed twice with the KRP buffer solution and then diluted to 20 ml by addition of the KRP buffer solution. To 0.25 ml of this suspension, 0.5 ml of KRP buffer solution containing 5% of bovine serum albumin and 0.1 ml of the liquids to be tested or KRP buffer solution as control were added; these mixtures were incubated at 37° C. for 2 hr and the freed fatty acids were assayed by Dole's method (V. P. Dole, J. Clin. Invest., 35, 150 (1956)).

SMILES: CNCC(O)c1ccc(O)c(O)c1 (stereo not shown) [adrenaline]
- action of adrenaline on free fat cell (in words): free fatty acid is freed
